Source: patent US20030124160A1, “Targeted drug delivery” (priority 2001, published 2003)

Tests used:
tyrosinase [1] = assay: Tyrosinase activity (DOPA oxidase assay) in lysates of B16-F1 cells cultured with free or liposome-included inhibitor; assay type: cell-based, mouse; settings: 24 h after washout following 72 h incubation
Protocol: B16-F1 mouse melanoma cells (European Collection of Animal Cell Culture, Porton Down, U.K.) were cultured in RPMI 1640 medium (Life Technologies, Paisley, Scotland, and U.K.) as described in ref. [8]. Cells were incubated with liposomes for 72 h at 37° C. and their viability was determined by using the trypan blue staining test. Following the incubation time, cells were harvested, washed three times with PBS and lysed in 10 mM phosphate buffer, pH 6.8 containing 1% Nonidet P40 and proteinase inhibitors.
Tyrosinase activity was measured by the DOPA oxidase assay that measures the conversion of DOPA to DOPAchrome via DOPA quinone. Briefly, 50 μl of cell lysate was mixed with 950 μl of 1 mM DOPA in 0.1 M sodium phosphate buffer, pH 7.2 at 37° C. and the reaction was followed spectrophotometrically at 475 nm by the chromogenic appearance of DOPAchroine from 1 mM DOPA (ref. [8]).
To investigate the uptake of liposome encapsulated NB-DNJ in living cells,.the activity of tyrosinase was monitored, a constitutively expressed enzyme of melanoma cells, highly sensitive to small variations of the NB-DNJ concentration in the culture medium (ref. [8]). Inhibition of N-glycosylation processing in the presence of NB-DNJ yields a tyrosinase polypeptide caring Glc3Man7-9GlcNAc glycans. […]

[2] = test system: B16-F1 mouse melanoma cells; assay: Pigmentation of melanoma cells, visual inspection; assay type: cell-based; settings: 0.5 mM free NB-DNJ, 72 h
Protocol: Cells were treated with for 72 h in the presence and absence of NB-DNJ free or included in liposomes, transferred into a microtiter plate and pelleted by centrifugation.
Tyrosinase is the regulatory enzyme of melanogenesis in melanocytes. Therefore, inactivation of tyrosinase is associated with lack of pigmentation due to the absence of melanin synthesis in specialized cells. To correlate the results on tyrosinase activity, with the melanin content, the pigmentation of the melanoma cells treated With liposomes was observed. […] The lack of pigmentation in melanoma cells treated with minute amounts of liposomal NB-DNJ correlates well with the abolishment of tyrosinase activity as a result of N-glycosylation processing inhibition, reinforcing the efficiency of the cytoplasmic delivery of the drug encapsulated in liposomes.

tyrosinase [3] = settings: B16 mouse melanoma cells, 0.5 mM-5 mM free NB-DNJ (ref. [6]); cited from earlier work

CCCCN1C[C@H](O)[C@@H](O)[C@H](O)[C@H]1CO [NB-DNJ, N-butyldeoxynojirimycin]
recovery of tyrosinase activity (tyrosinase [1]): 75%
pigmentation [2]: dramatic decrease
tyrosinase activity (tyrosinase [3]): dramatic decrease
